# Results published in US20090253709A1 (NATIONAL DEFENSE MEDICAL CENTER, priority 2008, published 2009).
# Key:
# Test in all cases: In vitro cytotoxicity, Development Therapeutics Program
# Type in all cases: cell-based
# UACC-257 = settings: UACC-257, melanoma; 1.0×10^−5 M
# Text: (§1) From the in vitro experiments of the Development Therapeutics Program of the Cancer Research Institute, the United States, it was known that the synthetic heterocyclic anthraquinone derivatives of the present invention have different inhibition levels to the different cancer cell lines under the concentration of 1.0×10^−5 M. Please refer to Table 2, which is the result of in vitro cytotoxicity of 2,7-disubstituted anthraquinone derivatives of the present invention.
# SNB-19 = settings: SNB-19, CNS cancer; 1.0×10^−5 M
# Text: as §1
# SF-268 = settings: SF-268, CNS cancer; 1.0×10^−5 M
# Text: as §1
# DU-145 = settings: DU-145, prostate cancer; 1.0×10^−5 M
# Text: as §1
# MALME-3M = settings: melanoma, 1.0×10^−5 M
# Text: as §1
# SF-539 = settings: SF-539, CNS cancer; 1.0×10^−5 M
# Text: as §1
# BT-549 = settings: BT-549, breast cancer; 1.0×10^−5 M
# Text: as §1
# A498 = settings: A498, renal cancer; 1.0×10^−5 M
# Text: as §1
# NCl-H460 = settings: NCl-H460, non-small cell lung cancer; 1.0×10^−5 M
# Text: as §1
# SK-MEL-2 = settings: SK-MEL-2, melanoma; 1.0×10^−5 M
# Text: as §1
# SNB-75 = settings: SNB-75, CNS cancer; 1.0×10^−5 M
# Text: as §1
# MCF7 = settings: MCF7, breast cancer; 1.0×10^−5 M
# Text: as §1
# PC-3 = settings: PC-3, prostate cancer; 1.0×10^−5 M
# Text: as §1
# HOP-92 = settings: HOP-92, non-small cell lung cancer; 1.0×10^−5 M
# Text: as §1
# NCl-H322M = settings: non-small cell lung cancer, 1.0×10^−5 M
# Text: as §1
# OVCAR-8 = settings: OVCAR-8, ovarian cancer; 1.0×10^−5 M
# Text: as §1
# HCT-15 = settings: HCT-15, colon cancer; 1.0×10^−5 M
# Text: as §1
# T-47D = settings: breast cancer, 1.0×10^−5 M
# Text: as §1
# SK-MEL-5 = settings: SK-MEL-5, melanoma; 1.0×10^−5 M
# Text: as §1
# 786-0 = settings: 786-0, renal cancer; 1.0×10^−5 M
# Text: as §1
# ACHN = settings: renal cancer, 1.0×10^−5 M
# Text: as §1
# HOP-62 = settings: HOP-62, non-small cell lung cancer; 1.0×10^−5 M
# Text: as §1
# NCl-H226 = settings: NCl-H226, non-small cell lung cancer; 1.0×10^−5 M
# Text: as §1
# UACC-62 = settings: UACC-62, melanoma; 1.0×10^−5 M
# Text: as §1
# HCC-2998 = settings: HCC-2998, colon cancer; 1.0×10^−5 M
# Text: as §1
# MOLT-4 = settings: MOLT-4, leukemia; 1.0×10^−5 M
# Text: as §1
# HL-60(TB) = settings: leukemia, 1.0×10^−5 M
# Text: as §1
# UO-31 = settings: UO-31, renal cancer; 1.0×10^−5 M
# Text: as §1
# LOX IMVI = settings: melanoma, 1.0×10^−5 M
# Text: as §1
# KM12 = settings: KM12, colon cancer; 1.0×10^−5 M
# Text: as §1
# SK-MEL-28 = settings: SK-MEL-28, melanoma; 1.0×10^−5 M
# Text: as §1
# OVCAR-5 = settings: OVCAR-5, ovarian cancer; 1.0×10^−5 M
# Text: as §1
# MDA-MB-231/ATCC = settings: breast cancer, 1.0×10^−5 M
# Text: as §1
# COLO 205 = settings: COLO 205, colon cancer; 1.0×10^−5 M
# Text: as §1
# MDA-MB-435 = settings: MDA-MB-435, breast cancer; 1.0×10^−5 M
# Text: as §1
# SR = settings: leukemia, 1.0×10^−5 M
# Text: as §1
# NCI-H23 = settings: NCI-H23, non-small cell lung cancer; 1.0×10^−5 M
# Text: as §1
# NCI/ADR-RES = settings: breast cancer, 1.0×10^−5 M
# Text: as §1
SMILES,Cellular growth rate (%) (UACC-257),Cellular growth rate (%) (SNB-19),Cellular growth rate (%) (SF-268),Cellular growth rate (%) (DU-145),Cellular growth rate (%) (MALME-3M),Cellular growth rate (%) (SF-539),Cellular growth rate (%) (BT-549),Cellular growth rate (%) (A498),Cellular growth rate (%) (NCl-H460),Cellular growth rate (%) (SK-MEL-2),Cellular growth rate (%) (SNB-75),Cellular growth rate (%) (MCF7),Cellular growth rate (%) (PC-3),Cellular growth rate (%) (HOP-92),Cellular growth rate (%) (NCl-H322M),Cellular growth rate (%) (OVCAR-8),Cellular growth rate (%) (HCT-15),Cellular growth rate (%) (T-47D),Cellular growth rate (%) (SK-MEL-5),Cellular growth rate (%) (786-0),also measured
"CC(=O)Nc1ccc2c(c1)C(=O)c1cc(NC(C)=O)ccc1C2=O [Compound 26, 2,7-Bis(acetamido)anthraquinone]",26.97,94.40,113.68,116.79,111.26,103.04,93.29,115.60,109.29,30.15,106.91,96.90,102.73,101.26,97.50,99.85,93.93,96.17,108.87,97.72,Cellular growth rate (%) (ACHN): 96.93%; Cellular growth rate (%) (HOP-62): 110.60%; Cellular growth rate (%) (NCl-H226): 104.51%; Cellular growth rate (%) (UACC-62): 101.24%; Cellular growth rate (%) (HCC-2998): 105.35%; Cellular growth rate (%) (MOLT-4): 96.96%; Cellular growth rate (%) (HL-60(TB)): 38.74%; Cellular growth rate (%) (UO-31): 96.42%; Cellular growth rate (%) (LOX IMVI): 99.05%; Cellular growth rate (%) (KM12): 105.94%; Cellular growth rate (%) (SK-MEL-28): 117.60%; Cellular growth rate (%) (OVCAR-5): 102.27%; Cellular growth rate (%) (MDA-MB-231/ATCC): 103.99%; Cellular growth rate (%) (COLO 205): 119.85%; Cellular growth rate (%) (MDA-MB-435): 109.48%; Cellular growth rate (%) (SR): 3.61%; Cellular growth rate (%) (NCI-H23): 94.24%; Cellular growth rate (%) (NCI/ADR-RES): 114.26%
"CN(C)CC(=O)Nc1ccc2c(c1)C(=O)c1cc(NC(=O)CN(C)C)ccc1C2=O [Compound 8, 2,7-Bis[2-(dimethylamino)acetamido]anthraquinone]",−1.84,79.57,64.92,78.68,96.21,−3.72,85.36,−6.39,5.01,−30.35,76.12,7.92,59.00,56.14,32.42,32.31,16.26,24.62,82.59,68.60,Cellular growth rate (%) (ACHN): 66.43%; Cellular growth rate (%) (HOP-62): 28.97%; Cellular growth rate (%) (NCl-H226): 89.14%; Cellular growth rate (%) (UACC-62): 22.31%; Cellular growth rate (%) (HCC-2998): −73.97%; Cellular growth rate (%) (MOLT-4): 29.12%; Cellular growth rate (%) (HL-60(TB)): −64.97%; Cellular growth rate (%) (UO-31): −82.55%; Cellular growth rate (%) (LOX IMVI): −52.34%; Cellular growth rate (%) (KM12): 66.95%; Cellular growth rate (%) (SK-MEL-28): 32.11%; Cellular growth rate (%) (OVCAR-5): 73.15%; Cellular growth rate (%) (MDA-MB-231/ATCC): 4.49%; Cellular growth rate (%) (COLO 205): −73.57%; Cellular growth rate (%) (MDA-MB-435): 68.36%; Cellular growth rate (%) (SR): −46.45%; Cellular growth rate (%) (NCI-H23): 51.78%; Cellular growth rate (%) (NCI/ADR-RES): 47.84%
